Reference: article PMC5216056 (Nature Communications, 2017)
Where “and” joins values, the source holds several entries; their conditions need not be identical. Equal values may be shown once. Entries after “also recorded” stand apart in the source; their conditions may differ. Read-outs that look alike come from different tables or passages of the source.

Experiments:
MT1 (ML1A) (h) = biological target: T1, MT1 (ML1A) (h) (Homo sapiens, UniProt P48039); test: CEREP panel; format: binding; conditions: read-out: % inhibition MT1 (ML1A) (h)
T1 construct: CEREP (contract assay)
T1 sequence (P48039 whole entry): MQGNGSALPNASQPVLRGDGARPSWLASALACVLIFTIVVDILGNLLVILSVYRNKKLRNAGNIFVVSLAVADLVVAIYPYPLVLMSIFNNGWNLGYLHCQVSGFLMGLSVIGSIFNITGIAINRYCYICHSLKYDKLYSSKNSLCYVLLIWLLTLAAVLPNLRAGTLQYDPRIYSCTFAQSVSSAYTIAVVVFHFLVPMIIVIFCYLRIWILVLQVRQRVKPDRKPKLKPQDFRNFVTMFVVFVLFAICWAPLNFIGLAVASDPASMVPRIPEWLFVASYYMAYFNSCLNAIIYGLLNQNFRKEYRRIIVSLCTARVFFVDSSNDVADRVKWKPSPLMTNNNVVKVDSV

P2X = test: CEREP panel; format: binding; conditions: 10 µM
NK1 (h) = biological target: T2, NK1 (h) (Homo sapiens, UniProt P25103); test: CEREP panel; format: binding; conditions: read-out: % inhibition NK1 (h)
T2 construct: CEREP (contract assay)
T2 sequence (P25103 whole entry): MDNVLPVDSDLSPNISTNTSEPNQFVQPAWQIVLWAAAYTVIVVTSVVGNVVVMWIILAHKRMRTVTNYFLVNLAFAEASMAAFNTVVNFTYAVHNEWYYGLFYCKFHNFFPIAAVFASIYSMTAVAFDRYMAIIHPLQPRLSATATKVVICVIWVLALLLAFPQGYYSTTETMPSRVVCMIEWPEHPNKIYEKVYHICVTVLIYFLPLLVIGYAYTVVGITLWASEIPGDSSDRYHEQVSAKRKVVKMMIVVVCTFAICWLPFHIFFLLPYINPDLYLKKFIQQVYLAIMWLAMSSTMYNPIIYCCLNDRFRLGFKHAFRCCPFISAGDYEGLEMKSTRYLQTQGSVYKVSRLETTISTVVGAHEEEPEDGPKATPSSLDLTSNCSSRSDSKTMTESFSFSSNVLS

NTS1 (NT1) (h) = biological target: T3, NTS1 (NT1) (h) (Homo sapiens, UniProt P30989); test: CEREP panel; format: binding; conditions: read-out: % inhibition NTS1 (NT1) (h)
T3 construct: CEREP (contract assay)
T3 sequence (P30989 whole entry): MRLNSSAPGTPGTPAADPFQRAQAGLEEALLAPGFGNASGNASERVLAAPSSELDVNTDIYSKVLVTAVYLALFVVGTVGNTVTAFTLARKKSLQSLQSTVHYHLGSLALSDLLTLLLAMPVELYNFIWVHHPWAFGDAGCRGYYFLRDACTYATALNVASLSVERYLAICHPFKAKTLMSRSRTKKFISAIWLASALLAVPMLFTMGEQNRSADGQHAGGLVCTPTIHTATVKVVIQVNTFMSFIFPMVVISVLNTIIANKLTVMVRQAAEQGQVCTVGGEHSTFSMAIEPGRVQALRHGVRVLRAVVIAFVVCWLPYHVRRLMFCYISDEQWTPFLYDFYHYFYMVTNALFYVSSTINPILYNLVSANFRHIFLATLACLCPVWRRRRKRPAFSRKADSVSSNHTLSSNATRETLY

mCB2R [1] = biological target: T4, mCB2R (Mus musculus, UniProt P47936); test: [35S]GTPγS assay; format: biochemical; design: from tissue; host or cells: spleen of male C57BL/6J mice
T4 sequence (P47936 whole entry): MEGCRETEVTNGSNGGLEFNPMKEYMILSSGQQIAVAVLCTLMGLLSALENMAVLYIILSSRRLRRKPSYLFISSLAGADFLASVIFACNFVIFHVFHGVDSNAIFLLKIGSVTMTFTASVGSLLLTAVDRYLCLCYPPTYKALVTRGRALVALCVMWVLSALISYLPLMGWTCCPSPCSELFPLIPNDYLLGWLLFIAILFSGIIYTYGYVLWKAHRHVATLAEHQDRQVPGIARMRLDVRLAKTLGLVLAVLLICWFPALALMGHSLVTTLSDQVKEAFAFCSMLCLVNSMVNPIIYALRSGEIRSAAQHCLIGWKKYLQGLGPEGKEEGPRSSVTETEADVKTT

AT2 (h) = biological target: T5, AT2 (h) (Homo sapiens, UniProt P50052); test: CEREP panel; format: binding; conditions: read-out: % inhibition AT2 (h)
T5 construct: CEREP
T5 sequence (P50052 1-363): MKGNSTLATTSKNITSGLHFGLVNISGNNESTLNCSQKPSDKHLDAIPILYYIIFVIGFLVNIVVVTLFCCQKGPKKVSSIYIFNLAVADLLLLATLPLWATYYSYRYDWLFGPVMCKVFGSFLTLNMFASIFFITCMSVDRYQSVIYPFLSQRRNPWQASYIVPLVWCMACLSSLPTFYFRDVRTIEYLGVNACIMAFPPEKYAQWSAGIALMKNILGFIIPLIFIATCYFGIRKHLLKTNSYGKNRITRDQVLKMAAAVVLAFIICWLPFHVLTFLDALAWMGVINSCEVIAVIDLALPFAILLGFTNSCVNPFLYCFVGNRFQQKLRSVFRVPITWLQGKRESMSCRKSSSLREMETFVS

beta 2 (h) = biological target: T6, beta 2 (h) (Homo sapiens, UniProt P07550); test: CEREP panel; format: binding; conditions: read-out: % inhibition beta 2 (h)
T6 construct: CEREP
T6 sequence (P07550 whole entry): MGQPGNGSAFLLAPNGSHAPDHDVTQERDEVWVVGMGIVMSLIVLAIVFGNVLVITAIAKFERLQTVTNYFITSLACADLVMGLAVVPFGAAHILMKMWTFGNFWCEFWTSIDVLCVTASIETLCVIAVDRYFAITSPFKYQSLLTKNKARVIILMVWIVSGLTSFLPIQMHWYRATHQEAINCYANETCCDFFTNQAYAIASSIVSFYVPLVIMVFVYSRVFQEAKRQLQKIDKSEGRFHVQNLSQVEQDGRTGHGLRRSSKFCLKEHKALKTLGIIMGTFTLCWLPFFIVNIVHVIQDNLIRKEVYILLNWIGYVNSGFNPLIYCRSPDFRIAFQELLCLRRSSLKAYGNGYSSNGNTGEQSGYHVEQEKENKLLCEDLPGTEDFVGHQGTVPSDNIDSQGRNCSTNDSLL

CB1 (h) = biological target: T7, CB1 (h) (Homo sapiens, UniProt P21554); test: biochemical; format: binding; conditions: read-out: % inhibition CB1 (h)
T7 construct: CEREP (contract assay)
T7 sequence (P21554 whole entry): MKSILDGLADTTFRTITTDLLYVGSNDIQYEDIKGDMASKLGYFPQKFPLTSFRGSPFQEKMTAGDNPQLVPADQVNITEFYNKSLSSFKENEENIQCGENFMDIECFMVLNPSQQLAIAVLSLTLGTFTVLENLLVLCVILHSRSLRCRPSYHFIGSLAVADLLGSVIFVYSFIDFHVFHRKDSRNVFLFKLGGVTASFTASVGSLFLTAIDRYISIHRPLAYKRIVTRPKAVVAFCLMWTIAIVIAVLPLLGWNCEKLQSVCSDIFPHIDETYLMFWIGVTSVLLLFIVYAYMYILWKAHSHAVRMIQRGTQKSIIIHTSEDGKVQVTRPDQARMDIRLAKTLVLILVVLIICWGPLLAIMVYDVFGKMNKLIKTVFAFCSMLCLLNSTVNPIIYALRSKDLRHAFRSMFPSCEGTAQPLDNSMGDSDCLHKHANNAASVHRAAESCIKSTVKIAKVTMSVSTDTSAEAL

BZD (peripheral) = biological target: T8, BZD (peripheral) (Rattus norvegicus, UniProt P16257); test: CEREP panel; format: binding; conditions: read-out: % inhibition BZD (peripheral)
T8 construct: CEREP
T8 sequence (P16257 whole entry): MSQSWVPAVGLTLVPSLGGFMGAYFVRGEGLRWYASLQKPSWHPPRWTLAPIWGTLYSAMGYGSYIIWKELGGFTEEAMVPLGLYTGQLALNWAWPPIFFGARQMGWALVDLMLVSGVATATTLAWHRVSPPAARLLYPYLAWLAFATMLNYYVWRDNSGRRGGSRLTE

C57BL6/J mice [2] = test: Triad assay: antinociception; format: in vivo, mouse
physchem = conditions: organic solvent or mixture
PAC1 (PACAP) (h) = biological target: T9, PAC1 (PACAP) (h) (Homo sapiens, UniProt P41586); test: CEREP panel; format: binding; conditions: read-out: % inhibition PAC1 (PACAP) (h)
T9 construct: CEREP (contract assay)
T9 sequence (P41586 21-468): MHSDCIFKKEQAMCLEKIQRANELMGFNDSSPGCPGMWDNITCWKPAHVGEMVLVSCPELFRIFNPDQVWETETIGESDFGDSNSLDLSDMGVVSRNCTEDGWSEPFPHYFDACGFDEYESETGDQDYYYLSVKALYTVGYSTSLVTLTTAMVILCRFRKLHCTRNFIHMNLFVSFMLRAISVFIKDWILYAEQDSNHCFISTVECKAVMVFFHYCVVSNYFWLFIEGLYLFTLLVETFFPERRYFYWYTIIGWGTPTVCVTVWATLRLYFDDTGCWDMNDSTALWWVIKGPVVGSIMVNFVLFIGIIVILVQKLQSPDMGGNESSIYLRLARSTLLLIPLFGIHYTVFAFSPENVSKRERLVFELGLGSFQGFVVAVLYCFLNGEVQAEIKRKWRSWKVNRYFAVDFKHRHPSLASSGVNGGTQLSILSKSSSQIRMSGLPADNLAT

NOP (ORL1) (h) = biological target: T10, NOP (ORL1) (h) (Homo sapiens, UniProt P41146); test: CEREP panel; format: binding; conditions: read-out: % inhibition NOP (ORL1) (h)
T10 construct: CEREP (contract assay)
T10 sequence (P41146 whole entry): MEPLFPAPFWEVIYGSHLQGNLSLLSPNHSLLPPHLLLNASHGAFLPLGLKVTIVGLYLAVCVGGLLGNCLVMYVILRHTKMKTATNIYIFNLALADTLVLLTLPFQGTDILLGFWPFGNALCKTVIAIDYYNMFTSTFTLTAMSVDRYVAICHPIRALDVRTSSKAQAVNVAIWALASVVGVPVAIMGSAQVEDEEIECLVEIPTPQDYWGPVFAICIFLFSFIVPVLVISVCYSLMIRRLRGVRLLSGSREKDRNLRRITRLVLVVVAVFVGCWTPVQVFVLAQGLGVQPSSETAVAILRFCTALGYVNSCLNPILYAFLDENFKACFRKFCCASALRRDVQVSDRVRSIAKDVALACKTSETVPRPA

in vitro [3] = conditions: C57BL6, mouse, hepatocytes
C57BL6/J mice [4] = test: Triad assay: catalepsy; format: in vivo, mouse
in vitro [5] = conditions: human, hepatocytes
mCB2R [6] = biological target: T4, mCB2R; test: Operational analysis of biased signalling
P2Y = test: CEREP panel; format: binding; conditions: 10 µM
[7] = Pharmacokinetics, oral administration in mice; format: in vivo, mouse
Cl- channel (GABA-gated) = test: CEREP panel; format: binding; conditions: 10 µM
in vitro [8] = conditions: both, human, microsomes, pH 7.4
[9] = 1-100 mg kg^−1 i.p., cumulative, mice
[10] = male, C57BL/6J or C57BL/6JRj, mouse, plasma, po, 5 mg/kg

CCCCCCC(C)(C)c1cc(OC)c([C@@H]2C=C(CO)[C@@H]3C[C@H]2C3(C)C)c(OC)c1 [HU308]
inhibition at 10 µM (MT1 (ML1A) (h)): -5% | % inhibition P2X (P2X): 2% | inhibition at 10 µM (NK1 (h)): 29% | inhibition at 10 µM (NTS1 (NT1) (h)): -23% | EC50 (mCB2R [1]): 148 nM | Emax (mCB2R [1]; read-out: Emax ± SEM GTPγS mCB2R): 96 ± 3% | inhibition at 10 µM (AT2 (h)): 42% | inhibition at 10 µM (beta 2 (h)): -30% | inhibition at 10 µM (CB1 (h)): 18% | inhibition at 10 µM (BZD (peripheral)): 12% | antinociception, cannabimimetic effect (C57BL6/J mice [2]; [9]): did not produce detectable; also recorded: lacked appreciable pharmacological effects | solubility (physchem): 2.06 µg/mL and 5 µM | inhibition at 10 µM (PAC1 (PACAP) (h)): -3% | inhibition at 10 µM (NOP (ORL1) (h)): -5% | hepatocyte CLint (in vitro [3]): 4.7 µL/min/1e6 cells | catalepsy, cannabimimetic effect (C57BL6/J mice [4]; [9]): did not produce detectable; also recorded: lacked appreciable pharmacological effects | hepatocyte CLint (in vitro [5]): 8.3 µL/min/1e6 cells | GTPγS-cAMP bias factor (BF) (mCB2R [6]): 25.8 | GTPγS-cAMP ΔΔlogR (mCB2R [6]): 1.41 ± 0.27 | LogR GTPγS (mCB2R [6]): 6.77 ± 0.05 | LogR cAMP (mCB2R [6]): 8.07 ± 0.22 | LogR β-AR (mCB2R [6]): 6.22 ± 0.10 | β-AR-GTPγS bias factor (BF) (mCB2R [6]): 0.19 | β-AR-GTPγS ΔΔlogR (mCB2R [6]): -0.72 ± 0.13 | β-AR-cAMP bias factor (BF) (mCB2R [6]): 4.9 | β-AR-cAMP ΔΔlogR (mCB2R [6]): 0.69 ± 0.28 | ΔLogR GTPγS (mCB2R [6]; reference CP55940): -1.04 ± 0.07 | ΔLogR cAMP (mCB2R [6]; reference CP55940): -2.46 ± 0.26 | ΔLogR β-AR (mCB2R [6]; reference CP55940): -1.77 ± 0.12 | RE GTPγS (mCB2R [6]; relative effectiveness): 0.09 | RE cAMP (mCB2R [6]; relative effectiveness): 0.004 | RE β-AR (mCB2R [6]; relative effectiveness): 0.02 | % inhibition P2Y (P2Y): 1% | AUC(0-inf) [7, 10]: 298 ng·h/mL | AUC(0-t) [7, 10]: 253 ng·h/mL | half-life [7, 10]: 3.3 h | Cmax ([7]; male, C57BL/6J or C57BL/6JRj, mouse, plasma, po, 5 mg/kg, p.o., read-out: Cmax): 201 ng/mL | Tmax ([7]; male, C57BL/6J or C57BL/6JRj, mouse, plasma, po, 5 mg/kg, p.o., read-out: Tmax): 0.5 h | AUCinf/dose ([7]; p.o.): 59.7 kg·ng·h/mL/mg

Cc1c(C(=O)NN2CCCCC2)nn(-c2ccc(Cl)cc2Cl)c1-c1ccc(Cl)cc1 [SR141716A]
inhibition at 10 µM (MT1 (ML1A) (h); 10 µM): 62% | antagonism of HU210-induced antinociception (C57BL6/J mice [2]; mouse, in vivo): attenuated; also recorded: significantly antagonized | % inhibition Cl- channel (GABA-gated) (Cl- channel (GABA-gated)): 83% | solubility (physchem): 1.23 µg/mL and 2.7 µM | microsomal CLint (in vitro [8]): 20 µL/min/mg | hepatocyte CLint (in vitro [3]): 65 µL/min/1e6 cells | antagonism of HU210-induced catalepsy (C57BL6/J mice [4]; mouse, in vivo): attenuated; also recorded: significantly antagonized | hepatocyte CLint (in vitro [5]): 5.7 µL/min/1e6 cells
